Columns and labels:
Ag85B = Ag85B (Mycobacterium tuberculosis, UniProt P9WQP1); format: biochemical; details: ratio of peak height of mono-hexanoyl ester of labelled/derivatised Tre to peak height of labelled/derivatised Tre; 500 μM di-hexanoyl ester, 500 μM substrate, 100 nM enzyme, 1 mM TEA pH 7.2, 37° C; compound 1 (Tre) = 100
Ag85A = Ag85A (Mycobacterium tuberculosis, UniProt P9WQP3); format: biochemical; details: ratio of peak height of mono-hexanoyl ester of labelled/derivatised Tre to peak height of labelled/derivatised Tre; 500 μM di-hexanoyl ester, 500 μM substrate, 100 nM enzyme, 1 mM TEA pH 7.2, 37° C; compound 1 (Tre) = 100
Sequence of Ag85A (P9WQP3 44-338): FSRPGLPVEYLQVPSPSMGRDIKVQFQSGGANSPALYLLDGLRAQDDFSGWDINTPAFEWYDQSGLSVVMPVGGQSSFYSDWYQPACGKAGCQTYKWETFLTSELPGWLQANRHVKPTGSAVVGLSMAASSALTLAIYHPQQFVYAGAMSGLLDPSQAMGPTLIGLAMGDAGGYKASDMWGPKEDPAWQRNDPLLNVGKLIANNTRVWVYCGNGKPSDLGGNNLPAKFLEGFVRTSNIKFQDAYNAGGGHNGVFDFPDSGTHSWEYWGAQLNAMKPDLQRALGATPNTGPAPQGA

Ag85C = Ag85C (Mycobacterium tuberculosis, UniProt P9WQN9); format: biochemical; details: ratio of peak height of mono-hexanoyl ester of labelled/derivatised Tre to peak height of labelled/derivatised Tre; 500 μM di-hexanoyl ester, 500 μM substrate, 100 nM enzyme, 1 mM TEA pH 7.2, 37° C; compound 1 (Tre) = 100
Sequence of Ag85C (P9WQN9 46-340): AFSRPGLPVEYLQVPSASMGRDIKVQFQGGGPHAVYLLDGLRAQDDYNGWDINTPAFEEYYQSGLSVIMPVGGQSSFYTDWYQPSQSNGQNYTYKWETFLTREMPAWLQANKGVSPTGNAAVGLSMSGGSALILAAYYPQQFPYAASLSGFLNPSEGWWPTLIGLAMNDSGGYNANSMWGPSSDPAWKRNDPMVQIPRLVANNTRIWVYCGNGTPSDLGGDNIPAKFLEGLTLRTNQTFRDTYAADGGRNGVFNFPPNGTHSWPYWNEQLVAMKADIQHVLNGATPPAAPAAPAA

[1] = system: J774 Macrophages infected with H37Rv Mtb; assay: FITC-Tre uptake into infected macrophages, confocal microscopy with anti-Mtb antibody; format: cell-based, murine; details: FIG. 7(j); antibody labelled with Alexa-594
Method: J774 Macrophages were grown to confluency on coverslips and then were infected with H37Rv Mtb (2-3 bacteria/macrophage). After 4 hours infection time, macrophages were washed to remove free bacteria and FITC-Tre was added in ethanol to desired concentrations (1 μM, 10 μM, 50 μM, 100 μM). Quantum dots (QDs) were treated in an analogous fashion and were added to a concentration of dots of (7 nm) with roughly 110 sugars/dot (1 μM effective sugar concentration) Uncoated QDs were utilized as a control. RFP expressing BCG was also treated in an identical fashion.
Cells were fixed at different timepoints utilizing the following procedure: Media was removed and cells were washed in PBS Buffer. Cells were then fixed in an aqueous solution of 5% formalin is phosphate buffered saline (PBS) for 15 minutes and then washed again using two 2-minute treatments with PBS (0.5 ml) for 2 min. […]
Images of stained cells were obtained by confocal microscopy (Leica SP2, Leica Microsystems, Exton, Pa.) using a 63× oil immersion objective NA 1.4. Multiple fields were sampled, and representative images were recorded. […] DAPI was first excited at 405 nm and emission spectrum was recorded (416 nm-482 nm) before the other fluorochromes were excited and emission spectrums recorded. Essential Sequential Z sections of stained cells were also recorded for generation of stacked images through cell. […]

Sequence of Ag85B (P9WQP1 41-325): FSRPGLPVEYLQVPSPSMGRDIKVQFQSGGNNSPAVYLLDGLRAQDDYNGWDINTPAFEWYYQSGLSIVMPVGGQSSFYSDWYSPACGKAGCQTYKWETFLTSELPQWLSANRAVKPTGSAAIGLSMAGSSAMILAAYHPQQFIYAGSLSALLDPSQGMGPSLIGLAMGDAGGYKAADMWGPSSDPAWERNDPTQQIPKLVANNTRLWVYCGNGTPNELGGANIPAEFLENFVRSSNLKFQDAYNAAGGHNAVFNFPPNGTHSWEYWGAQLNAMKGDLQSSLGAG

Row | SMILES | Relative substrate response towards transesterification, Ag85B (Ag85B) | Relative substrate response towards transesterification, Ag85A (Ag85A) | Relative substrate response towards transesterification, Ag85C (Ag85C) | Colocalization of probe with anti-Mtb antibody signal in infected macrophages [1]
1 | OCC1O[C@H](O[C@H]2OC(CO)[C@@H](O)C(O)C2I)C(I)C(O)[C@@H]1O (stereo partly drawn) [Compound 12, 2′-Deoxy-2′-iodo-α-D-mannopyranosyl-(1→1)-2-deoxy-2-iodo-α-D-mannopyranoside] | 54 | 148 | 166 | –
2 | C[C@]1(O[C@H]2OC(CO)[C@@H](O)C(O)C2F)OC(CO)[C@H](O)C(O)C1O (stereo partly drawn) [Compound 5, 1-Deoxy-α-D-galacto-hept-2-ulopyranosyl-(2→1)-2-deoxy-2-fluoro-α-D-glucopyranoside] | 13 | 19 | 64 | –
3 | O=P1(O)OCC2O[C@H](O[C@H]3OC(CO)[C@@H](O)C(O)C3O)C(O)C(O)[C@@H]2O1 (stereo partly drawn) [Compound 17, 4,6-(monohydrogen)phosphoryl-D-trehalose] | 17 | 18 | 94 | –
4 | OC[C@H]1O[C@H](O[C@H]2O[C@H](CO)[C@@H](O)[C@H](O)[C@H]2O)[C@H](O)[C@@H](O)[C@@H]1O [Compound 1, trehalose, reference compound] | 100 | 100 | 100 | –
5 | C[C@]1(O[C@H]2OC(CO)[C@@H](O)C(O)C2N)OC(CO)[C@@H](O)C(O)C1O (stereo partly drawn) [Compound 7, 1-Deoxy-α-D-gluco-hept-2-ulopyranosyl-(2→1)-2-amino-2-deoxy-α-D-glucopyranoside] | 56 | 47 | 91 | –
6 | OCC1O[C@H](O[C@@H]2CC(O)[C@H](O)C(CO)O2)CC(O)[C@@H]1O (stereo partly drawn) [Compound 10, 2′-Deoxy-α-D-arabino-hexopyranosyl-(1→1)-2-deoxy-α-D-arabino-hexopyranoside] | 16 | 50 | 129 | –
7 | OCC1O[C@H](O[C@@H]2CC(O)[C@@H](O)C(CO)O2)CC(O)[C@H]1O (stereo partly drawn) [Compound 11, 2′-Deoxy-α-D-lyxo-hexopyranosyl-(1→1)-2-deoxy-α-D-lyxo-hexopyranoside] | 4 | 1 | 1 | –
8 | C[C@]1(O[C@H]2OC(CO)[C@@H](O)C(F)C2O)OC(CO)[C@@H](O)C(O)C1O (stereo partly drawn) [Compound 6, 1-Deoxy-α-D-gluco-hept-2-ulopyranosyl-(2→1)-3-fluoro-3-deoxy-α-D-glucopyranoside] | 8 | 7 | 76 | –
9 | C[C@]1(O[C@H]2OC(CO)[C@@H](O)C(O)C2F)OC(CO)[C@@H](O)C(O)C1O (stereo partly drawn) [Compound 3, 1-Deoxy-α-D-gluco-hept-2-ulopyranosyl-(2→1)-2-deoxy-2-fluoro-α-D-glucopyranoside] | 1415 | 73 | 102 | –
10 | OCC1O[C@H](O[C@H]2OC(CO)[C@@H](O)C(O)C2F)C(F)C(O)[C@@H]1O (stereo partly drawn) [Compound 13, 2′-Deoxy-2′-fluoro-α-D-mannopyranosyl-(1→1)-2-deoxy-2-fluoro-α-D-mannopyranoside] | 24 | 66 | 98 | –
11 | OCC1O[C@H](O[C@H]2OC(CF)[C@@H](O)C(O)C2O)C(O)C(O)[C@@H]1O (stereo partly drawn) [Compound 20, 6-deoxy-6-fluoro-α-D-glucopyranosyl-α-D-glucopyranoside] | 412 | 149 | 91 | –
12 | COP(=O)(O)OCC1O[C@H](O[C@H]2OC(CO)[C@@H](O)C(O)C2O)C(O)C(O)[C@@H]1O (stereo partly drawn) [Compound 16, 6-O-monomethoxyphosphoryl-D-trehalose] | 24 | 37 | 113 | –
13 | O=P(O)(O)OCC1O[C@H](O[C@H]2OC(CO)[C@@H](O)C(O)C2O)C(O)C(O)[C@@H]1O (stereo partly shown) [Compound 15, Trehalose-6-phosphate] | 4 | 6 | 28 | –
14 | OCC1O[C@H](O[C@H]2OC(CBr)[C@@H](O)C(O)C2O)C(O)C(O)[C@@H]1O (stereo partly drawn) [Compound 19, 6-deoxy-6-bromo-α-D-glucopyranosyl-α-D-glucopyranoside] | 92 | 102 | 99 | –
15 | OC[C@H]1O[C@H](O[C@H]2O[C@H](CO)[C@H](F)[C@H](O)[C@H]2O)[C@H](O)[C@@H](O)[C@@H]1O [Compound 21, 4-deoxy-4-fluoro-α-D-galactopyranosyl α-D-glucopyranoside] | 412 | 229 | 91 | –
16 | C[C@]1(O[C@H]2OC(CO)[C@@H](O)C(O)C2O)OC(CO)[C@@H](O)C(O)C1O (stereo partly drawn) [Compound 2, 1-Deoxy-α-D-gluco-hept-2-ulopyranosyl-(2→1)-α-D-glucopyranoside] | 13 | 32 | 111 | –
17 | [N-]=[N+]=NCC1O[C@H](O[C@H]2OC(CO)[C@@H](O)C(O)C2O)C(O)C(O)[C@@H]1O (stereo partly drawn) [Compound 18, 6-Azido-D-trehalose] | 13 | 37 | 64 | –
18 | OCC1O[C@H](O[C@@H]2OC(CO)[C@@H](O)C(O)C2F)C(F)C(O)[C@@H]1O (stereo partly drawn) [Compound 14, 2′-Deoxy-2′-fluoro-α-D-mannopyranosyl-(1→1)-2-deoxy-2-fluoro-β-D-mannopyranoside] | 35 | 7 | 82 | –
19 | C[C@]1(O[C@H]2OC(CO)[C@@H](O)C(O)C2O)OC(CO)[C@H](O)C(O)C1O (stereo partly drawn) [Compound 4, 1-Deoxy-α-D-galacto-hept-2-ulopyranosyl-(2→1)-α-D-glucopyranoside] | 7 | 12 | 57 | –
20 | C[C@]1(O[C@H]2OC(CO)[C@@H](O)C(O)C2NC(=S)Nc2ccc(-c3c4ccc(=O)cc-4oc4cc(O)ccc34)c(C(=O)O)c2)OC(CO)[C@@H](O)C(O)C1O (stereo partly drawn) [Compound 9, 1-Deoxy-α-D-gluco-hept-2-ulopyranosyl-(2→1)-2-N-fluorescein-2-deoxy-α-D-glucopyranoside] | 38 | 229 | 44 | colocalization of FITC-Tre and antibody
